Source: ChEMBL document CHEMBL5512612, “Novel small molecule inhibitors targeting renal cell carcinoma: Status, challenges, future directions” (Eur J Med Chem, 2024)

What was measured:
[1] = test system: A498; experiment: Antiproliferative activity against human A498 cells; assay type: functional, cell-based
[2] = test system: 786-0; experiment: Antiproliferative activity against human 786-0 cells; assay type: functional, cell-based
[3] = test system: ACHN; experiment: Induction of TRAIL induced apoptosis in human ACHN cells assessed as reduction in cFLIP level; assay type: functional, cell-based
[4] = molecular target: Vascular endothelial growth factor receptor 2 (Homo sapiens, UniProt P35968); experiment: Inhibition of VEGFR2 (unknown origin) by Kinase-Glo max reagent based assay
[5] = test system: A498; experiment: Cytotoxicity against human A498 cells incubated for 48 hrs by MTT assay; assay type: functional, cell-based; details: A498, 48 h
[6] = test system: CAKI-1; experiment: Cytotoxicity against human CAKI-1 cells incubated for 48 hrs by MTT assay; assay type: functional, cell-based; details: CAKI-1, 48 h

Vascular endothelial growth factor receptor 2, sequence (P35968 whole entry): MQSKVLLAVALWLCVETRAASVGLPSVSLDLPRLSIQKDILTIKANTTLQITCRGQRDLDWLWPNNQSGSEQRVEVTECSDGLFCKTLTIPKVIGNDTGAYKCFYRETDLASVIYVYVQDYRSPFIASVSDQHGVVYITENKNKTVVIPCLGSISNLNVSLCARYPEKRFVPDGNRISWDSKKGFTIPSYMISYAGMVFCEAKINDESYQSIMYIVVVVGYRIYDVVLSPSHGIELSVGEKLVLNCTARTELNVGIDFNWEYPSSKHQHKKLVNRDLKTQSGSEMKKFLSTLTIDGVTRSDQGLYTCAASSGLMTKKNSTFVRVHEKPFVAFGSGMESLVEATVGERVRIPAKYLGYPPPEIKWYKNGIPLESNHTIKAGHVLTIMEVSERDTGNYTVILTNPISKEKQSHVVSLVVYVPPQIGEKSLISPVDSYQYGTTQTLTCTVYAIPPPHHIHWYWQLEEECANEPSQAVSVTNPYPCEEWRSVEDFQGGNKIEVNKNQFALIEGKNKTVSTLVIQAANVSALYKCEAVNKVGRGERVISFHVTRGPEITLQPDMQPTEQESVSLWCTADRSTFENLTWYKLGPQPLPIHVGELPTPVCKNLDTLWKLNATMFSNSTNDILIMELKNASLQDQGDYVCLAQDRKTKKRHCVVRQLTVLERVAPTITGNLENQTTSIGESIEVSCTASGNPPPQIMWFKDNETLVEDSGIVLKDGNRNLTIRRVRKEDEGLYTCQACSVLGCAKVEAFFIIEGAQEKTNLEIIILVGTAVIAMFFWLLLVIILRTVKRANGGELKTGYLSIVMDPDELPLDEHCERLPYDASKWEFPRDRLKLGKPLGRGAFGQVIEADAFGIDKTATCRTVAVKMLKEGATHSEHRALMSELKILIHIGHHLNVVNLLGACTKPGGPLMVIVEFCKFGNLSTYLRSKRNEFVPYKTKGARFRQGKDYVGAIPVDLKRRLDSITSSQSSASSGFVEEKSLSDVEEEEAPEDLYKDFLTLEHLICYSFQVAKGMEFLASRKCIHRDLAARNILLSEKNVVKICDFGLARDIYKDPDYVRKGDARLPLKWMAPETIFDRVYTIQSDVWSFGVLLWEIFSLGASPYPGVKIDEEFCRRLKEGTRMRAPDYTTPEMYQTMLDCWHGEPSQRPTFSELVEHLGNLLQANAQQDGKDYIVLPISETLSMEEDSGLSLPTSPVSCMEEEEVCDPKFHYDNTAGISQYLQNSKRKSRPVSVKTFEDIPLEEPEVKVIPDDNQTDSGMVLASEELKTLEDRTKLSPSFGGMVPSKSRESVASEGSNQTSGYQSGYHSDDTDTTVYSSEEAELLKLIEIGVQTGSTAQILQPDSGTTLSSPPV

SMILES | IC50 [2] [µM] | IC50 [4] [nM] | IC50 [1] [µM] | also measured
CC(=O)OC[C@]12CC[C@H]3[C@@H](C[C@H]4O[C@]45CC=CC(=O)[C@]35C)[C@]1(O)CC[C@@]2(O)[C@@](C)(O)[C@H]1CC(C)=C(C)C(=O)O1 |  |  |  | IC50 [3]: 117 nM
O=C(Nc1ccccc1)Nc1nc2ccccc2o1 | > 25 |  | > 25 | 
CC(=O)/C(=N\Nc1ccccc1)Sc1nnc(-c2cc3ccccc3[nH]2)n1/N=C/c1ccc(C)cc1 |  | 75 |  | IC50 [5]: 2050 nM; IC50 [6]: 3.23 µM
CCOC(=O)/C(=N\Nc1ccccc1)Sc1nnc(-c2cc3ccccc3[nH]2)n1/N=C/c1ccc(OC)cc1 |  | 77 |  | IC50 [5]: 640 nM; IC50 [6]: 8.46 µM
O=C(Nc1ccc(Cl)cc1)Nc1nc2ccccc2[nH]1 | 20 |  | 9 | 
CCN(CC)CCNC(=O)c1c(C)[nH]c(/C=C2\C(=O)Nc3ccc(F)cc32)c1C [SUNITINIB] |  |  |  | IC50 [5]: 1250 nM
CC1=C(C)C(=O)O[C@@H]([C@](C)(O)[C@]2(O)CC[C@@]3(O)[C@@H]4C[C@H]5O[C@]56CC=CC(=O)[C@]6(C)[C@H]4CC[C@]23C)C1 [WITHANOLIDE E] |  |  |  | IC50 [3]: 1400 nM

More lines, main results first:

IC50 [2] [µM] | IC50 [4] [nM] | SMILES | IC50 [1] [µM] | also measured
100 |  | O=C(Nc1ccc([N+](=O)[O-])cc1O)Nc1ccccc1Br | 70 | 
 | 34 | Cc1ccc(/C=N/n2c(-c3cc4ccccc4[nH]3)n[nH]c2=S)cc1 |  | 
2 |  | O=C(Nc1cccc(Cl)c1)Nc1nc2ccc([N+](=O)[O-])cc2s1 | 2.5 | 
 | 64 | COc1ccc(/C=N/n2c(-c3cc4ccccc4[nH]3)n[nH]c2=S)cc1 |  | 
